Data published in ChEMBL document CHEMBL1143791, “Synthesis of isonicotinoylhydrazones from anacardic acid and their in vitro activity against Mycobacterium smegmatis” (2007).
Values after ≈ are worked out from the molar mass of the structure shown. Active and inactive are the calls of the source. No cut-off for these calls is given here.

Assays:
[1] = system: Mycolicibacterium smegmatis; experiment: Antimicrobial activity against Mycobacterium smegmatis str. MC2 155 after 24 hrs at 100 ug/ml by broth dilution method; type: functional, organism-based
[2] = system: Mycolicibacterium smegmatis; experiment: Antimicrobial activity against Mycobacterium smegmatis str. MC2 155 after 24 hrs by broth dilution method; type: functional; conditions: str. MC2 155, 24 h
[3] = system: Mycolicibacterium smegmatis; experiment: Antimicrobial activity against Mycobacterium smegmatis str. MC2 155 after 24 hrs at 1 ug/ml by broth dilution method; type: functional
[4] = system: Mycobacterium tuberculosis; experiment: Antimicrobial activity against Mycobacterium tuberculosis H37Rv at 0.5 ug/ml after 6 weeks; type: functional, organism-based
[5] = system: Mycobacterium tuberculosis; experiment: Antimicrobial activity against Mycobacterium tuberculosis H37Rv at 10 ug/ml after 6 weeks; type: functional, organism-based
[6] = system: Mycolicibacterium smegmatis; experiment: Antimicrobial activity against Mycobacterium smegmatis mc2 155 after 24 hrs at 0.5 ug/ml by broth dilution method; type: functional, organism-based; conditions: str. MC2 155

| SMILES | Activity [1] | MIC [2] | Activity [3] | Activity [4] | Activity [5] | Activity [6] |
| --- | --- | --- | --- | --- | --- | --- |
| CCCCCCCCCCCCCCCc1c([N+](=O)[O-])ccc(O)c1C(=O)O | inactive |  |  |  |  |  |
| C=CC/C=C\C/C=C\CCCCCCCc1cccc(O)c1C(=O)O | inactive |  |  |  |  |  |
| NNC(=O)c1ccncc1 [ISONIAZID] |  | 1.5 µg/mL (≈ 10.9 µM) | 36% |  |  |  |
| O=C(N/N=C/CCCCCCCc1cccc(O)c1C(=O)O)c1ccncc1 |  | 4 µg/mL (≈ 10.4 µM) |  | inactive | Active | inactive |
| O=C(N/N=C/CCCCCCCc1c([N+](=O)[O-])ccc(O)c1C(=O)O)c1ccncc1 |  | 5 µg/mL (≈ 11.7 µM) |  | inactive | Active | inactive |
